The values that follow come from ChEMBL document CHEMBL1687706, “Inhibition of human immunodeficiency virus type 1 replication in human cells by Debio-025, a novel cyclophilin binding agent” (Antimicrob Agents Chemother, 2008).

In one data set the test system is Human alphaherpesvirus 1. The data set can be described thus: Antiviral activity against Herpes simplex virus 1 McIntyre infected in human embryonic lung cells assessed as inhibition of viral replication. The settings on record: Human alphaherpesvirus 1, McIntyre. The class given is functional, organism-based.
The subject of another data set is Feline coronavirus. In words: Antiviral activity against Feline coronavirus infected in CRFK assessed as inhibition of viral replication. The class given is functional, organism-based. The settings on record: Alphacoronavirus 1, CRFK.
The test system of data set [1] is Human immunodeficiency virus 1. In words: Antiviral activity against HIV1 subtype G Jv1083 infected in human PBMC assessed as inhibition of viral replication by ELISA. The class given is functional, organism-based. Particulars: Human immunodeficiency virus 1, subtype G Jv1083.
Data set [2] relates to Rattus norvegicus. The data set can be described thus: Immunosuppressive activity in Sprague-Dawley rat KHL model assessed as percent T-helper cells at 50 mg/kg, po administered once daily for 28 days by flow cytometry. The class given is functional. On the technique in general: Flow cytometry measures light scatter and fluorescence of single cells or particles in a stream.

The test system of data set [3] is Simian immunodeficiency virus. The data set can be described thus: Antiviral activity against Simian immunodeficiency virus PBj infected in human PBMC assessed as inhibition of viral replication by RT activity. The class given is functional, organism-based.
Data set [4] can be described thus: Cytotoxicity against human Huh 5.2 cells. The class given is cell-based, Huh-5-2. Particulars: read-out: TC50 (the source's name).
A further data set concerns Vaccinia virus. In words: Antiviral activity against Vaccinia virus infected in human embryonic lung cells assessed as reduction in viral yield measured after 3 days. The class given is functional, organism-based. Particulars: Orthopoxvirus vaccinia, 72 h.
Data set [5] deals with Human immunodeficiency virus 1. In words: Antiviral activity against ABC, ddC, ddI, TDF, AZT, d4T-resistant HIV-1 G910-6 infected in human PBMC assessed as inhibition of viral replication by ELISA. The class given is functional, organism-based. The settings on record: Human immunodeficiency virus 1, G910-6. In general terms: An ELISA detects its analyte on a solid surface through an enzyme-linked reagent.

Data set [6] concerns Rattus norvegicus. The data set can be described thus: Immunosuppressive activity in Sprague-Dawley rat KHL model assessed as percent cytotoxic T cells at 25 mg/kg, po administered once daily for 28 days by flow cytometry. The class given is functional, T-cell.

What is called IC50 is the concentration that gives 50% inhibition. On to `C/C=C/C[C@@H](C)[C@@H](O)[C@H]1C(=O)N[C@@H](CC)C(=O)N(C)[C@H](C)C(=O)N(CC)[C@@H](C(C)C)C(=O)N[C@@H](C(C)C)C(=O)N(C)[C@@H](CC(C)C)C(=O)N[C@@H](C)C(=O)N[C@H](C)C(=O)N(C)[C@@H](CC(C)C)C(=O)N(C)[C@@H](CC(C)C)C(=O)N(C)[C@@H](C(C)C)C(=O)N1C` [ALISPORIVIR], for which the IC50 was greater than 25 µM in the data set on Human alphaherpesvirus 1; 2.2 µM in the data set with Feline coronavirus; 5.53 µM in [1]; 7.97 µM in data set [3]; greater than 25 µM with Vaccinia virus; 0.029 µM in data set [5]. Further, the Activity is given as 32.8% in the data set on Rattus norvegicus [2] and 18% in the data set on Rattus norvegicus [6]. Besides, in data set [4], the CC50 turned out to be 22 µM.
